Measured values reported in patent US12129241B1, “9-(2-hydroxypyridin-3-yl)-10-(2-hydroxyethyl)-3,3,6,6-tetramethyl-3,4,6,7,9,10-hexahydroacridine1,8(2H,5H)-dione as an antimicrobial compound” (KING FAISAL UNIVERSITY, priority 2023, dated 2024).

Experiments:
Assay in all cases: Antimicrobial screening by agar dilution
Format in all cases: cell-based
Conditions in all cases: after 10, 20, 40 and 60 minutes at all dilutions 1:100, 1:200, 1:400, 1:800
Candida albicans = tested on: Candida albicans
Description: (§1) The antibacterial properties of the synthesized compound 9-(2-hydroxypyridin-3-yl)-10-(2-hydroxyethyl)-3,3,6,6-tetramethyl-3,4,6,7,9,10-hexahydroacridine1,8(2H,5H)-dione were studied by the method of agar dilution. Test solutions of each compound was prepared in concentration of 1% using dimethylformamide as a solvent then they are diluted in physiological solution to obtain the final experimental dilutions 1:100, 1:200, 1:400, 1:800. The effect of these substances are compared with furacillin in a controllable study. The testing microbes used were gram positive bacteria Staphylococcus aureus, gram negative bacteria Pseudomonas aeruginosa and Escherichia coli and Candida albicans fungus. The experiments used for this survey were meat-pentonlu agar (EPA) for cultivation of bacteria and Saburo environment for the fungus. Each experiment used 1 mL of test solution on each plate […]. Two drops of emulsified with microbes feel were added. All experimental samples were taken from the agar after 10, 20, 40, 60 minutes in the environment on the basis of Patrk planted. The bacteria were cultivated at a temperature of 37° C. for 1 day and the mushroom was kept in a thermostat for […] at a temperature of 28° C. Then results were checked.

Staphylococcus aureus = tested on: Staphylococcus aureus
Description: as §1

Pseudomonas aeruginosa = tested on: Pseudomonas aeruginosa
Description: as §1

Escherichia coli = tested on: Escherichia coli
Description: as §1

Measured: inhibition activity

CC1(C)CC(=O)C2=C(C1)N(CCO)C1=C(C(=O)CC(C)(C)C1)C2c1cccnc1O [9-(2-hydroxypyridin-3-yl)-10-(2-hydroxyethyl)-3,3,6,6-tetramethyl-3,4,6,7,9,10-hexahydroacridine1,8(2H,5H)-dione]
highest inhibition activity: all assays above
